“Also recorded” adds a separate entry of the source.
How the values were obtained:
humans = conditions: cited from earlier work
[1] = system: neonatal hypoxic-ischemic brain injury; conditions: melatonin 15 mg/kg; Carloni et al.; cited from earlier work
[2] = system: melatonin receptor 1A (MT1); conditions: melatonin 10 mg/kg, 30 min prior to H-I; 48 hr post H-I
Description: A model of hypoxia-ischemia in newborn mice pups based on modification of Rice-Vannucci model of unilateral carotid ligation (UCL) followed by hypoxia was used.^40 C57/BL6 wild type and MT1 knockout (KO) mice litters of postnatal day 8 (P8) pups were anesthetized with 2.5% isofluorane and balanced room air, and the right common carotid artery permanently ligated. Time to anesthesia and completion of surgery was timed with a stopwatch to limit the procedure to less than 3 min. Following recovery from anesthesia after 15 min, the pups were placed in hypoxia chamber through which 8% oxygen was delivered at 6 liters per min for 60 min for histology, western blot and immunostaining and 45 mins for FJB staining. Normothermia was maintained by placing the pups in an incubator at 34° C. throughout the experiment except during hypoxia when the temperature was increased to 36° C. to counteract the cooling effect of the 8% 02 gas flow. […]
The lysate was cleared by centrifugation at 19,720×g for 10 min at 4° C., and the supernatant was analyzed by Western blotting.^20 Following right unilateral carotid ligation (UCL), C57/BL6 P8 pups were subjected to 60 min of hypoxia. […] The resulting supernatants were analyzed by Western blotting.^20, 44 Protein concentration was measured by the Bradford method.

[3] = system: neonatal H-I brain injury (P8 mice, unilateral carotid ligation and 60 min hypoxia); test: Neonatal hypoxia-ischemia mouse model, H&E staining and brain area loss; type: in vivo
Description: For histological analyses, after various time points after H-I brain injury, mice were anesthetized with IP injection of 100 mg/kg pentobarbital and then perfused through the left ventricle with PBS. […] The sections corresponding to image 205 up to caudal hippocampus region of Allen mouse brain atlas were directly mounted on SuperFrost Plus® microscope slides. H&E staining was performed on the brain at 7 days post H-I injury comprising of right unilateral carotid ligation and 60 min hypoxia. Brain sections of 50 μm thickness were stained with hematoxylin and eosin (all reagents from Fisher Scientific, Santa Clara, Calif.), dehydrated in graded ethanol solutions, cleared with xylene, examined under light microscope, and subsequently scanned with Epsom V500 photo scanner for measurements. The cross-sectional unaffected and affected areas of the hippocampus, and cortex were measured with NIH imageJ software. A total of 5 coronal slices through the same hippocampus regions were inspected for tissue loss for each animal. The total cross-sectional area in each brain region was calculated in all sections assessed, and the percentage of area loss in the lesioned hemisphere versus the unlesioned hemisphere was determined for each animal. The person performing the measurements was blinded to the study groups. Images of H & E stained sections were quantified using ImageJ software package to measure hemispheric area contralateral and ipsilateral to the H-I brain injury in order to calculate the amount of tissue lost on the ipsilateral hemisphere. The loss of brain tissue ipsilateral to the H-I injury was calculated as a percentage of the non-injured contralateral hemisphere.

[4] = system: neonatal H-I brain injury (P8 mice, unilateral carotid ligation and 45 min hypoxia); test: Neonatal hypoxia-ischemia mouse model, Fluoro-Jade B staining and histological score; type: in vivo; conditions: melatonin 5 mg/kg IP once daily, 48 hr after H-I
Description: FJB staining was performed at 48 hr post H-I injury of UCL followed by 45 min hypoxia. Fluoro-Jade is an anionic fluorochrome capable of selectively staining degenerating neurons in brain slices. Coronal sections of 16 μm thickness were stained with FJB using the method adapted from Schmued and colleagues.^41 Briefly, tissues mounted on glass slides were sequentially placed in 100% ethanol for 3 min, 70% ethanol for 1 min and deionized water for 1 min. Sections were oxidized for 15 min using 0.06% KMnO4 solution followed by 3 brief rinses in PBS. Slides were then immersed in a 0.001% solution of Fluoro-Jade (Histochem, Jefferson, A R) in 0.1% acetic acid for 30 min, rinsed with PBS, dried for 20 min at 45° C., cleared with xylene and cover slips applied using DPX medium. FJB stained sections were examined under a microscope independently by 2 investigators blinded to the treatment group. […] The total scores for the hippocampus and cortex were compared in melatonin treated and vehicle group.

WT mice = test: Body weight of WT mice under NAS; type: in vivo, mouse; conditions: NAS 7.5, 15, 30, 45 mg/kg, daily IP injection started at 6 weeks
[5] = system: motor neurons in lumbar spinal cord of mSOD1 G93A ALS mice; test: Nissl staining of motor neurons in lumbar spinal cord of mSOD1 G93A ALS mice; type: in vivo, mouse; conditions: NAS treatment vs saline vehicle
Description: Nissl staining was performed in mSOD1G93A ALS mice and wild type littermates. Serial lumbar spinal cords were sectioned at 18 μm. Continuous 10 sections per mouse were subjected to Nissl staining. Stained motor neurons were counted in the ventral horns of all sections.

cerebral ischemia = conditions: NAS administration; Zhou et al. 2014; cited from earlier work
[6] = system: mSOD1 G93A ALS transgenic mice; test: mSOD1 G93A ALS mice: disease onset (rotarod), survival, body weight; type: in vivo, mouse
Description: Motor strength and coordination were evaluated using a rotarod. Mice were evaluated at both 15 and 5 rpm rotarod speeds. […] Mortality was defined as the age at death or when the mouse was unable to right itself within 30 second. Body weight was monitored weekly.
To determine whether NAS could be used therapeutically in these subjects, NAS was administered at 15 mg/kg/day by daily IP injection initiated at 6 weeks of age. […] ALS disease onset was defined as failure to pass the rotarod task at 15 rpm. […] Thus NAS administration also prevents motor neuron loss in mSOD1 G93A ALS mice.

[7] = melatonin 10 mg/kg IP once daily, first dose 30 min before H-I, 60 min hypoxia, 7 days after H-I, H&E
[8] = NAS 15 mg/kg/day, daily IP injection initiated at 6 weeks of age

Row | Structure (SMILES) | side effects in humans (humans; humans) | safety profile in human newborns (humans; oxidative stress conditions in human newborns: asphyxia, sepsis, respiratory distress syndrome) | reduction in brain damage [1] [%] | MT1 expression in brains of H-I pups (western blot) [2] | hippocampal tissue (area) loss in the brain ipsilateral to carotid ligation [3, 7] [%] | percentage brain tissue loss in the brain hemisphere ipsilateral to carotid ligation compared to the uninjured contralateral hemisphere [3, 7] [%] | reduction in hippocampus damage ([3]; melatonin 10 mg/kg, hippocampus) [%] | reduction in brain damage ([3]; melatonin 10 mg/kg, whole hemisphere) [%] | score of FJB positive cells in the cortex [4] | score of FJB positive cells in the hippocampus [4] | body weight in WT mice (WT mice) | loss of motor neurons in lumbar spinal cord (Nissl staining) [5] | lesion size (cerebral ischemia) | neurological score (cerebral ischemia) | neuronal cell death (cerebral ischemia) | loss of body weight during pathogenesis in mSOD1 G93A mice ([6]; NAS 15 mg/kg, daily IP injection started at 6 weeks) | ALS disease onset (failure to pass the rotarod task at 15 rpm) [6, 8] | survival / mortality [6, 8]
1 | COc1ccc2[nH]cc(CCNC(C)=O)c2c1 [melatonin, N-acetyl-5-methoxytryptamine] | minimal | good safety profile with no significant complications | 64 | significantly ameliorated MT1 loss | 28.6 | 9.7 | 57 | 60 | significantly higher score (representing worse damage) in vehicle treated pups compared with melatonin treated pups | significantly higher score (representing worse damage) in vehicle treated pups compared with melatonin treated pups | – | – | – | – | – | – | – | –
2 | CC(=O)NCCc1c[nH]c2ccc(O)cc12 [NAS, N-acetylserotonin] | – | – | – | – | – | – | – | – | – | – | no effect on body weight | ameliorate the loss of motor neurons | diminish lesion size | improve neurological score | attenuate neuronal cell death | prevents the loss of body weight | delayed disease onset; also recorded: delays ALS disease onset | extending survival

From US10507199B2, “Molecules in the tryptophan-5-hydroxytryptophan-serotonin-NAS-melatonin/6-hydroxymelatonin sulfate-melatonin receptor 1A pathway in neurological diseases” (priority 2017, dated 2019)
